Assay results reported in patent US8609836B2, “4-aryl-2-anilino-pyrimidines” (Janssen Pharmaceutica NV, priority 2008, dated 2013).

Columns and labels:
GSK3β (h) = GSK3β (h) (Homo sapiens, UniProt P49841); experiment: GSK-3β human kinase inhibition, SPA; assay type: biochemical; conditions: read-out: GSK3b pIC50 (converted)
Protocol: (§1) The in vitro inhibition of a panel of kinases was assessed using either the scintillation proximity assay (SPA) as described by Cook, N. D. et al., Advances in Experimental Medicine and Biology (1991), 36; p. 525-528.
(§2) In the SPA technology the activity of the kinase of interest is measured using an appropriate biotinylated substrate that is incubated with the aforementioned kinase protein in the presence of (^33P) radiolabeled ATP. (^33P) Phosphorylation of the substrate is subsequently measured through binding of the phosphorylated substrate to streptavidine coated beads that are based on the scintillant poly(vinyl toluene) (PVT-Beads). The scintillation intensity is detected by imaging on Leadseeker.
(§3) All kinases are pre-diluted to a 10× working concentration prior to addition into the assay. The composition of the dilution buffer for each kinase is detailed below.
In a final reaction volume of 30 μl, GSK3β (h) (1 μg/ml) is incubated with 25 mM Tris pH 7.4, 10 mM MgCl2, 1 mM DTT, 1 μM peptide Biotin-[…]-OH, 1 μM ATP and 2 nM [γ-^33P-ATP] (6.0 μCi/ml). After incubation of 60 minutes at room temperature, the reaction is stopped by addition of 40 μL of stop solution containing 8.7 mM EDTA, BSA 0.17%, 0.17% Triton X-100, 6.25 mg/ml SPA beads (GE-healthcare). The plate is centrifuged and read for Scintillation imaging on Leadseeker.

PLK3 (h) = PLK3 (h) (Homo sapiens, UniProt Q9H4B4); experiment: PLK3 human kinase inhibition, SPA; assay type: biochemical; conditions: read-out: PLK3 pIC50 (converted)
Protocol: as §1, §2, §3
(§4) In a final reaction volume of 30 μl, PLK3 (h) (30 μg/ml) is incubated with 50 mM Hepes pH 8.0, 2 mM MnCl2, 1 mM DTT, 2 μM of peptide Biotin-Tds linker-[…], 0.1 μM ATP and 2 nM [γ-^33P-ATP] (6.0 μCi/ml). After incubation of 20 minutes at room temperature, the reaction is stopped by addition of 40 μL of stop solution containing 8.7 mM EDTA, BSA 0.17%, 0.17% Triton X-100, 25 mg/ml SPA beads (GE-healthcare). The plate is centrifuged and read for Scintillation imaging on Leadseeker.

HCT-116 = experiment: Cellular proliferation assay (Alamar blue), HCT-116; assay type: cell-based; conditions: Homo sapiens, 10% FCS, 72 hours with compound, Alamar blue 4 h
Protocol: (§5) […] functional properties of these compounds were tested in cellular proliferation assays on a panel of different cell lines in the presence of 10% FCS serum (37° C. and 5% (v/v) CO2). In a first step these cells were seeded and incubated for 24 hours in the absence of compound. In the second step the cells were incubated for 72 hours with the compounds to be tested for 72 hours. The viable cell number was finally assessed in a standard Alamar blue cell viability assay.
(§6) The viable cell number was assessed by incubation for either 4 h (HCT-116, H1299) 6 h (U87-MG) or 24 h (A2780, MDA-MB-231) with Alamar blue (Resazurin 9 μg/ml, K-Ferrocyanide 90 μM, K-Ferricyanide 90 μM) and the converted fluorescent product was quantified on a fluorescent plate reader (544 nm/590 nm). Effect of the compounds is calculated as of on control cells.

CDK1/CyclinB (h) = CDK1/CyclinB (h) (Homo sapiens, UniProt P06493); experiment: CDK1/CyclinB human kinase inhibition, Invitrogen's FRET assay (Z'lyte); assay type: biochemical; conditions: read-out: CDK1 pIC50 (converted)
Protocol: as §1, §3
In a final reaction volume of 10 μl, CDK1/CyclinB (h) (0.2 μg/ml) is incubated with 50 mM Hepes pH 7.5, 10 mM MgCl2, 1 mM EGTA, 0.01% Brij-35, 2 μM Z'lyte Ser/Thr peptide 12 and 10 μM ATP (Invitrogen's FRET assay). After incubation of 60 minutes at room temperature, the reaction is stopped by addition of 5 μL development reagent containing protease mix. After 60 minutes room temperature the development reaction is stopped by adding 5 μl stop solution. The plate is then read in fluorescence plate reader with excitation: 390 nm and dual emission: 460 and 538 nm. Emission ratio is determined to the formula=Emission signal intensity at 460 nm/Emission signal intensity at 538 nm.

AuroraB (h) = AuroraB (h) (Homo sapiens, UniProt Q96GD4); experiment: Aurora-B human kinase inhibition, SPA; assay type: biochemical; conditions: read-out: AuroraB pIC50 (converted)
Protocol: as §1, §2, §3
In a final reaction volume of 30 μl, AuroraB (h) (0.5 μg/ml) is incubated with 60 mM Hepes pH 7.5, 3 mM MgCl2, 3 mM MnCl2, 3 μM Na3VO4, 0.05 mg/ml PEG, 2 mM DTT, 3 μM Biotin-[…]-OH, 0.5 μM ATP and 2.2 nM [γ-^33P-ATP] (6.8 μCi/ml). After incubation of 60 minutes at room temperature, the reaction is stopped by addition of 40 μL of stop solution containing 8.7 mM EDTA, BSA 0.17%, 0.17% Triton X-100, 5 mg/ml SPA beads (GE-healthcare). The plate is centrifuged and read for Scintillation imaging on Leadseeker.

PLK2 (h) = PLK2 (h) (Homo sapiens, UniProt Q9NYY3); experiment: PLK2 human kinase inhibition, SPA; assay type: biochemical; conditions: read-out: PLK2 pIC50 (converted)
Protocol: as §1, §2, §3
as §4, with “PLK2” for “PLK3”

U87-MG = experiment: Cellular proliferation assay (Alamar blue), U87-MG; assay type: cell-based; conditions: Homo sapiens, U-87 MG; 10% FCS; 72 hours with compound; Alamar blue 6 h; read-out: U87-MG (cellular proliferation assay, Table 4) (converted)
Protocol: as §5, §6

PLK1 T210D (h) = PLK1 T210D (h) (Homo sapiens, UniProt P53350, T210D); experiment: PLK1 human kinase inhibition, SPA; assay type: biochemical; conditions: read-out: PLK1 pIC50 (converted)
Protocol: as §1, §2, §3
as §4, with “PLK1 T210D” for “PLK3”, “(0.125 ng/ml)” for “(30 μg/ml)”, “40” for “20”

PLK4 (h) = PLK4 (h) (Homo sapiens, UniProt O00444); experiment: PLK-4 human kinase inhibition, scintillation proximity assay (SPA); assay type: biochemical; conditions: read-out: PLK4 pIC50 (converted)
Protocol: as §2, §3
(6.0 μCi/ml). After incubation of 60 minutes at room temperature, the reaction is stopped by addition of 40 μL of stop solution containing 8.7 mM EDTA, BSA 0.17%, 0.17% Triton X-100, 1.7 mg/ml SPA beads (GE-healthcare). The plate is centrifuged and read for Scintillation imaging on Leadseeker.

CDK4/CyclinD1 (h) = CDK4/CyclinD1 (h) (Homo sapiens, UniProt P11802); experiment: CDK4/CyclinD1 human kinase inhibition, SPA with GST-pRb substrate; assay type: biochemical; conditions: read-out: CDK4 pIC50 (converted)
Protocol: as §1, §2, §3
In a final reaction volume of 30 μl, CDK4/CyclinD1 (h) (2.5 μg/ml) is incubated with 50 mM Hepes pH 7.5, 8 mM NaF, 20 mM MgCl2, 1 mM DTT, 40 μg/ml of substrate GST-pRb, 2 nM [γ-^33P-ATP] (6.0 μCi/ml). After incubation of 60 minutes at room temperature, the reaction is stopped by addition of 40 μL of stop solution containing 8.7 mM EDTA, 0.17% Triton X-100, 25 mg/ml Glutathion SPA Beads (GE-healthcare). The plate is centrifuged and read for Scintillation topcount analyzer.

A2780 = experiment: Cellular proliferation assay (Alamar blue), A2780; assay type: cell-based; conditions: Homo sapiens, 10% FCS, 72 hours with compound, Alamar blue 24 h, read-out: A2780 (cellular proliferation assay, Table 4) (converted)
Protocol: as §5, §6

Chain of CDK1/CyclinB (h) (P06493 whole entry): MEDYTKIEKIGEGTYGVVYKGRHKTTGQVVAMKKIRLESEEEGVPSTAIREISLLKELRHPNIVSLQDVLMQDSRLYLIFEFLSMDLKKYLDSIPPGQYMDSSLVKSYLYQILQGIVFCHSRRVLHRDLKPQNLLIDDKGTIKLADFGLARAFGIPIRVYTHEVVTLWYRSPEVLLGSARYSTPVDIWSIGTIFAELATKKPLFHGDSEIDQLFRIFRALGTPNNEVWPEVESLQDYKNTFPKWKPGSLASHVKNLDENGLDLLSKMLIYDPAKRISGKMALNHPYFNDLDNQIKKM
Chain of CDK1/CyclinB (h) (P14635 whole entry partner): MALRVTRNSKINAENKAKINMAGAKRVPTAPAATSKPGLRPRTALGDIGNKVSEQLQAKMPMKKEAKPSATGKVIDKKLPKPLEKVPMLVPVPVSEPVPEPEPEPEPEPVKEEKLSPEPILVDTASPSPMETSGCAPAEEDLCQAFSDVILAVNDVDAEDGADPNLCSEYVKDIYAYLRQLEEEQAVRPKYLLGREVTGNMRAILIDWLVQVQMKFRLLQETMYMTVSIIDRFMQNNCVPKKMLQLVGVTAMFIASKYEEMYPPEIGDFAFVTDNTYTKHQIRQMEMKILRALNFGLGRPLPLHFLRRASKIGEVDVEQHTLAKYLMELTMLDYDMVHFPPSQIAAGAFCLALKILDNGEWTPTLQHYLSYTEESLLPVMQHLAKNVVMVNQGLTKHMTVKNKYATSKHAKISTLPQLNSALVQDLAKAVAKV
Chain of PLK1 T210D (h) (P53350 whole entry T210D): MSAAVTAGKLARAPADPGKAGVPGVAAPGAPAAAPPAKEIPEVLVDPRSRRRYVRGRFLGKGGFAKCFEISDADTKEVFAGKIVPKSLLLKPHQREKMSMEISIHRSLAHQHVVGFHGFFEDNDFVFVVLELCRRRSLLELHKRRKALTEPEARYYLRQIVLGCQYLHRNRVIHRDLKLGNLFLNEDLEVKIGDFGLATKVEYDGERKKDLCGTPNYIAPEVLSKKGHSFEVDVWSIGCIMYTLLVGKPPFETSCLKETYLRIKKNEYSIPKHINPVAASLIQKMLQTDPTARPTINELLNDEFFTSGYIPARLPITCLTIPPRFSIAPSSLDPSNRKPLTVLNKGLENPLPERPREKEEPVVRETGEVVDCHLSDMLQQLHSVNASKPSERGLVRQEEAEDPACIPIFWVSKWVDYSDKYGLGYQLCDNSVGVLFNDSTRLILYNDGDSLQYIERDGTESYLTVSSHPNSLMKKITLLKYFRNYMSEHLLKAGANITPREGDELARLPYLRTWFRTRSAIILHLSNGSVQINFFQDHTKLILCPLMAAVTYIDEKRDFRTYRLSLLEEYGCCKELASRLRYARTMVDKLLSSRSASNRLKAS
Chain of GSK3β (h) (P49841 whole entry): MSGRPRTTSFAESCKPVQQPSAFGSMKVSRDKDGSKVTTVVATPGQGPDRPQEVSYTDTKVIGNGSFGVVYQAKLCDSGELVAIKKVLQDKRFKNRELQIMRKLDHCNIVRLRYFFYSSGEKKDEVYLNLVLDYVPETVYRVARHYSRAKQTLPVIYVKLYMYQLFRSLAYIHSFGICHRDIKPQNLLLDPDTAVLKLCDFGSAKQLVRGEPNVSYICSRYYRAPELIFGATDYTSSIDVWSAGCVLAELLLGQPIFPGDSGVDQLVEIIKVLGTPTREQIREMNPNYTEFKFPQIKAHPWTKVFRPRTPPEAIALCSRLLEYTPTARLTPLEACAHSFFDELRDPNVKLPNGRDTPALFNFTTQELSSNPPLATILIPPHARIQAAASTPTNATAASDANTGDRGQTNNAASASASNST
Chain of AuroraB (h) (Q96GD4 whole entry): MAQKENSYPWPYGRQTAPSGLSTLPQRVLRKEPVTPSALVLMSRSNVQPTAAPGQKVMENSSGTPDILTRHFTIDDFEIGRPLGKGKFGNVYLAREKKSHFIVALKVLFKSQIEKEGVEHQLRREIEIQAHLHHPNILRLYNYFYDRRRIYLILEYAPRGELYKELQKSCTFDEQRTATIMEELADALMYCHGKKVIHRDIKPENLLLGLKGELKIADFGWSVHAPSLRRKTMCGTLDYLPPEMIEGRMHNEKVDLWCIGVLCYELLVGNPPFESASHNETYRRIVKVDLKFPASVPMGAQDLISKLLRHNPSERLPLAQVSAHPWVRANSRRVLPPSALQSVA
Chain of CDK4/CyclinD1 (h) (P11802 whole entry): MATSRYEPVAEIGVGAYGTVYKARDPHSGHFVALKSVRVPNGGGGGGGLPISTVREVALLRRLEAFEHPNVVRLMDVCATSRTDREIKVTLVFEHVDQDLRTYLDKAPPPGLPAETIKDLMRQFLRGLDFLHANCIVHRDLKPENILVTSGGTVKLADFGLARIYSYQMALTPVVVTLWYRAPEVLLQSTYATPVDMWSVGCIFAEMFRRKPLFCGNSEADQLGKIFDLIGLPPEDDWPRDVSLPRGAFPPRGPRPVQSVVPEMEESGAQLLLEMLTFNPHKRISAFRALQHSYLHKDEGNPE
Chain of CDK4/CyclinD1 (h) (P24385 whole entry partner): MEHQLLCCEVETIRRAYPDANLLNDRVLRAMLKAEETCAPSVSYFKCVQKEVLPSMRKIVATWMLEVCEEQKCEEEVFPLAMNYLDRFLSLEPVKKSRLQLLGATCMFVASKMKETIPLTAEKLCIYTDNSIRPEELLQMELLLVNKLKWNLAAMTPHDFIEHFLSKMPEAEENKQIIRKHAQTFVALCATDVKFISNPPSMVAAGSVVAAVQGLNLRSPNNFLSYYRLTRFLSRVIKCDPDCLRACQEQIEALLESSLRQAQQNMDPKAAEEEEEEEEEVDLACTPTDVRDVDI
Chain of PLK3 (h) (Q9H4B4 whole entry): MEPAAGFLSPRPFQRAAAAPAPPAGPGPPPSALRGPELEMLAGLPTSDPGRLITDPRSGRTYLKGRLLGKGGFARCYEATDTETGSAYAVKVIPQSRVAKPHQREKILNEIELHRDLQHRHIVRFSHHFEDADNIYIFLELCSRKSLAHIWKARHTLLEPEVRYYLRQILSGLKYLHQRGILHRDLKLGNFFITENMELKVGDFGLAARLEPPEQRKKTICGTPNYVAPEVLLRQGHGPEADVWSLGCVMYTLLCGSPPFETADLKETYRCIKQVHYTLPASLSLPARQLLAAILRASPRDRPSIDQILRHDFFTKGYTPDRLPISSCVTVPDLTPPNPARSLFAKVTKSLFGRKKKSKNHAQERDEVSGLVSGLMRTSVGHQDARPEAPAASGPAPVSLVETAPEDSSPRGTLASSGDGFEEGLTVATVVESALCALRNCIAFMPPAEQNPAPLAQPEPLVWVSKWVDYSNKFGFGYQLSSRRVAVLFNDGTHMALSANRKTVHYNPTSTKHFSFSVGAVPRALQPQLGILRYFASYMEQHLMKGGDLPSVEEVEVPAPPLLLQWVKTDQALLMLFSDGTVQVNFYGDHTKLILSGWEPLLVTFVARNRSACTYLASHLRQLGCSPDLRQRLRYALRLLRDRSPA
Chain of PLK4 (h) (O00444 whole entry): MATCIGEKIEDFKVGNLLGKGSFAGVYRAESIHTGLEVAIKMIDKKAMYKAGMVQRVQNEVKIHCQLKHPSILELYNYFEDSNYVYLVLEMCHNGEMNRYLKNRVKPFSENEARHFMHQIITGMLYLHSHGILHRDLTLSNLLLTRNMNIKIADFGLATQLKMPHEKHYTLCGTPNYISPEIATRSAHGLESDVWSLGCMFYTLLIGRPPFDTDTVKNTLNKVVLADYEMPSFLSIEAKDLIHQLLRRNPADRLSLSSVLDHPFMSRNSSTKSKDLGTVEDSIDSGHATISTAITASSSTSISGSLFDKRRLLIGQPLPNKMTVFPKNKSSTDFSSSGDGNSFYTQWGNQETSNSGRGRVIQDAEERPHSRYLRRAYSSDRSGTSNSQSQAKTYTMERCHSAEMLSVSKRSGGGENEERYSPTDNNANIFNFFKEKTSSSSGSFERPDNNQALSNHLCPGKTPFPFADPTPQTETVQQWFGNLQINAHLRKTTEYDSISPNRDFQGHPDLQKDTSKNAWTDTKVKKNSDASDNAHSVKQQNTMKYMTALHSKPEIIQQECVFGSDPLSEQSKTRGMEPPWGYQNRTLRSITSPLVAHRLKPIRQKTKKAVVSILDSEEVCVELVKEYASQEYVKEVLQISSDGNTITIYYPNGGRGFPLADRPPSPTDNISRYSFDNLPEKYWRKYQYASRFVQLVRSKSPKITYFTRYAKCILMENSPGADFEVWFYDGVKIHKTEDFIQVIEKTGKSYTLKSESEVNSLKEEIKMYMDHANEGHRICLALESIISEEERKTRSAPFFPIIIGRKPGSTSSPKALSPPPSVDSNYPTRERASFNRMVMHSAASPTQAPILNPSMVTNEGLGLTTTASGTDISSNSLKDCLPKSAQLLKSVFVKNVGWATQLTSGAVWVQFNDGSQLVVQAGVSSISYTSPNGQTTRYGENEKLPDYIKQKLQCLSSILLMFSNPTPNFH
Chain of PLK2 (h) (Q9NYY3 whole entry): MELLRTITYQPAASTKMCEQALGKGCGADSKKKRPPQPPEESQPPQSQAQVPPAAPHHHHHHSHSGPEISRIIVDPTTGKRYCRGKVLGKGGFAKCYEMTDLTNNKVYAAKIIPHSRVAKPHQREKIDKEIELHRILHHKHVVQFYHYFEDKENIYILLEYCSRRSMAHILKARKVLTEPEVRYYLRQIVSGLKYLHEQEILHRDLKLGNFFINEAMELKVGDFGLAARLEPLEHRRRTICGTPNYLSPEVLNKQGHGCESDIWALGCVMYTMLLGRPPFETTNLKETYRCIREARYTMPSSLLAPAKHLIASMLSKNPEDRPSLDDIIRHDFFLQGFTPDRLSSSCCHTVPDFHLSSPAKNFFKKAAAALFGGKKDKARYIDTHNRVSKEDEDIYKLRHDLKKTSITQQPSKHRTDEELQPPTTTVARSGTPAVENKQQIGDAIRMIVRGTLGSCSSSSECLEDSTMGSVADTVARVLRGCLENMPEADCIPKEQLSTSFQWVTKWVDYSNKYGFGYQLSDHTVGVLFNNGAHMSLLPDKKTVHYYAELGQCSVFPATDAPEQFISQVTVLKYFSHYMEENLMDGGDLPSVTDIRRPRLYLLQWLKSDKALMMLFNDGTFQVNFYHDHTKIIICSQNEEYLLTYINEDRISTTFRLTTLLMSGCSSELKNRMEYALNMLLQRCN

SMILES	IC50 (GSK3β (h)) [µM]	IC50 (PLK3 (h)) [µM]	IC50 (HCT-116) [µM]	IC50 (CDK1/CyclinB (h)) [µM]	IC50 (AuroraB (h)) [µM]	IC50 (PLK2 (h)) [µM]	IC50 (U87-MG) [µM]	IC50 (PLK1 T210D (h)) [µM]	IC50 (PLK4 (h)) [µM]	IC50 (CDK4/CyclinD1 (h)) [µM]	IC50 (A2780) [µM]
COc1ccc2cc1CN(C)CCNC(=O)CN1CCN(CC1)Cc1cc(Br)cc(c1)Nc1nccc-2n1 [Compound 50]	5.13	> 10	> 10	> 10	> 10	> 10	> 10	> 10	9.33	> 10	> 10
COc1ccc2cc1CNCCNC(=O)C1CCN(CC1)Cc1cc(ccc1N1CCOCC1)Nc1nccc-2n1 [Compound 64]	> 10	> 10		> 10	7.41	> 10		> 10	1.2	> 10	
COc1ccc2cc1CN(C)CCNC(=O)C1CCN(CC1)Cc1cc(Br)cc(c1)Nc1nccc-2n1 [Compound 79]	0.832	> 10	> 10	> 10	> 10	> 10	7.59	> 10	5.25	> 10	4.79
CN1CCCNC(=O)[C@@H]2CCCN2Cc2cc(Br)cc(c2)Nc2nccc(n2)-c2ccc(cc2)C1 [Compound 159]	6.31	> 10	> 10	> 10	5.75	> 10	6.92	> 10	1.48	> 10	2.69
O=C1NCc2cccc(c2)-c2ccnc(n2)Nc2ccc(cc2)CN[C@H]1CO [Compound 191]	7.94	> 10		> 10	> 10	> 10		> 10	> 10	7.41	

Further lines, results first:

IC50 (GSK3β (h)) [µM]	IC50 (PLK3 (h)) [µM]	IC50 (HCT-116) [µM]	IC50 (CDK1/CyclinB (h)) [µM]	IC50 (AuroraB (h)) [µM]	IC50 (PLK2 (h)) [µM]	IC50 (U87-MG) [µM]	IC50 (PLK1 T210D (h)) [µM]	IC50 (PLK4 (h)) [µM]	IC50 (CDK4/CyclinD1 (h)) [µM]	IC50 (A2780) [µM]	SMILES
> 10	> 10	> 10	> 10	> 10	> 10	> 10	> 10	> 10	> 10		COc1ccc2cc1CN1CCC[C@H]1C(=O)NCCCc1ccc(cn1)-c1ccnc(n1)N2 [Compound 2]
1.91	> 10	> 10	> 10	> 10	> 10	5.89	> 10	1.12	> 10	2.69	CN1CCCNC(=O)C2CCN(CC2)Cc2cc(Br)cc(c2)Nc2nccc(n2)-c2ccc(cc2)C1 [Compound 63]
2.95	> 10	> 10	> 10	> 10	> 10	7.94	> 10	2.09	> 10	3.89	CN1CCCNC(=O)CN2CCN(CC2)Cc2cc(Br)cc(c2)Nc2nccc(n2)-c2ccc(cc2)C1 [Compound 137]
> 3.02	> 10	> 10	> 10	> 10	> 10	> 10	> 10	3.55	> 10	> 10	CN1CCCNC(=O)CN2CCN(CC2)Cc2cccc(c2)Nc2nccc(n2)-c2ccc(cc2)C1 [Compound 143]
> 10	> 10	> 10	> 10	5.25	> 10	5.25	> 10	3.89	> 10	4.17	COc1ccc2cc1CN(C)CCCNC(=O)[C@@H]1CCCN1Cc1cc(Br)cc(c1)Nc1nccc-2n1 [Compound 170]
4.79	> 10	> 10	> 10	8.71	> 10	> 10	> 10	~6.92	> 10	1.66	COc1ccc2cc1CN(C)CCNC(=O)[C@@H]1CCCN1Cc1cc(Br)cc(c1)Nc1nccc-2n1 [Compound 174]
